In patent US20190060298A1, “NEW DRUG FOR THE TREATMENT AND/OR PREVENTION OF DEPRESSIVE DISORDERS” (SORBONNE UNIVERSITE, priority 2013, published 2019):

Legend:
BDNF = assay: Serum BDNF assay; type: in vivo, Sprague-Dawley rats; details: vulnerable animals vs vulnerable animals treated with vehicle
Protocol: Blood samples (200 μl) were collected from conscious rats at various time points (D-4, D5, D11, D31 at midday). These samples were taken from the tail vein and were collected in Eppendorf tubes. The samples were centrifuged to separate off the serum, which was stored at −20° C. until BDNF analysis. BDNF concentrations were determined at a dilution of 1:25, with a commercial BDNF assay (Promega Corporation), in 96-well plates (Corning Costar® EIA plate), according to the manufacturer's instructions.
Another serum BDNF was carried out. Blood samples (200 μl) of awake rats were collected at different time-points (D-4, D9, D35, D57 at midday) from the vein of the tail into eppendorf tubes. After centrifugation, serum was separated and stored at −20° C. until analysis for BDNF. BDNF concentrations were determined at dilution of 1:25 with a commercial BDNF assay (Promega Corporation), in 96-well plates (Corning Costar® EIA plate), according to the manufacturer's instructions.
(§1) Tempol (4-hydroxy-2,2,6,6-tetramethylpiperidine 1-oxyl), which was administered at a dose of 288 μmol/kg/day [Sigma-Aldrich, St Louis, Mo., USA]), was dissolved in distilled water and delivered via ALZET osmotic mini-pumps (2002, Charles River Laboratories, France). […]

lipid peroxidation (MDA) = assay: Lipid peroxidation (TBARS/MDA) in hippocampus; type: in vivo, Sprague-Dawley rats; details: V rats; 288 μmol/kg/day, 15 days from D11; D31
Protocol: The right hippocampus was homogenized in ice-cold buffer (Tris-HCl 50 mM pH 7.5, 150 mM NaCl, 1 mM EDTA) and used for TBARS and glutathione peroxidase (GPx) assays.
For the TBARS assay, protease inhibitors (50 μl/ml), DOC (1%), SDS (0.1%) and Triton® X-100 (0.5%) were added immediately in ice-cold buffer. For the GPx assay, 0.1 M dithiothreitol was added immediately in ice-cold buffer. The homogenates were centrifuged and the supernatants were retained for analysis. Lipid peroxidation was assessed by measuring TBARS formation with a commercial assay kit (Cayman Chemical, Ann Arbor, Mich., USA), in accordance with the manufacturer's instructions. TBARS concentration was calculated from an MDA standard curve and normalized. Total GPx activity in the homogenate was measured in accordance with the kit manufacturer's instructions (Cayman Chemical, Ann Arbor, Mich., USA). GPx specific activity is expressed as nmoles of NADPH consumed per minute per mg of hippocampal tissue. No difference in hippocampal weight was observed between defeated, vulnerable, non-vulnerable and control animals.
as §1

SMILES: CC1(C)CC(O)CC(C)(C)N1[O] [TEMPOL, 4-hydroxy-2,2,6,6-tetramethylpiperidin-1-oxyl]
- serum BDNF levels (BDNF): induced the recovery of serum BDNF levels
- lipid peroxidation (MDA) (lipid peroxidation (MDA)): lack of
